Measurements from PubChem BioAssay (NCI).
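How tested: cells in 96-well plates exposed to compound for 48 hours at five concentrations. GI50 is the concentration that inhibits growth by half. The concentration for full growth arrest is given as TGI.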

Legend:
Test in all cases: growth of human tumour cells (NCI), 48 h
786-0 renal = tested on: 786-0 renal
A498 renal = tested on: A498 renal
A549 NSCLC = tested on: A549 NSCLC
ACHN renal = tested on: ACHN renal
BT-549 breast = tested on: BT-549 breast
CAKI-1 renal = tested on: CAKI-1 renal
CCRF-CEM leukemia = tested on: CCRF-CEM leukemia
COLO 205 colon = tested on: COLO 205 colon
DU-145 prostate = tested on: DU-145 prostate
EKVX NSCLC = tested on: EKVX NSCLC
HCC-2998 colon = tested on: HCC-2998 colon
HCT-116 colon = tested on: HCT-116 colon
HCT-15 colon = tested on: HCT-15 colon
HL-60(TB) leukemia = tested on: HL-60(TB) leukemia
HOP-62 NSCLC = tested on: HOP-62 NSCLC
HOP-92 NSCLC = tested on: HOP-92 NSCLC
HS 578T breast = tested on: HS 578T breast
HT29 colon = tested on: HT29 colon
IGROV1 ovarian = tested on: IGROV1 ovarian
K-562 leukemia = tested on: K-562 leukemia
KM12 colon = tested on: KM12 colon
LOX IMVI melanoma = tested on: LOX IMVI melanoma
M14 melanoma = tested on: M14 melanoma
MALME-3M melanoma = tested on: MALME-3M melanoma
MCF7 breast = tested on: MCF7 breast
MDA-MB-231 breast = tested on: MDA-MB-231 breast
MDA-MB-435 = tested on: MDA-MB-435
MOLT-4 leukemia = tested on: MOLT-4 leukemia
NCI-H226 lung = tested on: NCI-H226 lung
NCI-H23 lung = tested on: NCI-H23 lung
NCI-H460 lung = tested on: NCI-H460 lung
NCI-H522 lung = tested on: NCI-H522 lung
NCI/ADR-RES ovarian = tested on: NCI/ADR-RES ovarian
OVCAR-3 ovarian = tested on: OVCAR-3 ovarian
OVCAR-4 ovarian = tested on: OVCAR-4 ovarian
OVCAR-5 ovarian = tested on: OVCAR-5 ovarian
OVCAR-8 ovarian = tested on: OVCAR-8 ovarian
PC-3 prostate = tested on: PC-3 prostate
RPMI-8226 leukemia = tested on: RPMI-8226 leukemia
RXF 393 renal = tested on: RXF 393 renal
SF-268 CNS = tested on: SF-268 CNS
SF-295 CNS = tested on: SF-295 CNS
SF-539 CNS = tested on: SF-539 CNS
SK-MEL-2 melanoma = tested on: SK-MEL-2 melanoma
SK-MEL-5 melanoma = tested on: SK-MEL-5 melanoma
SK-OV-3 ovarian = tested on: SK-OV-3 ovarian
SN12C renal = tested on: SN12C renal
SNB-19 CNS = tested on: SNB-19 CNS
SNB-75 CNS = tested on: SNB-75 CNS
SR leukemia = tested on: SR leukemia
SW-620 colon = tested on: SW-620 colon
T-47D breast = tested on: T-47D breast
TK-10 renal = tested on: TK-10 renal
U251 CNS = tested on: U251 CNS
UO-31 renal = tested on: UO-31 renal
SK-MEL-28 melanoma = tested on: SK-MEL-28 melanoma
UACC-257 melanoma = tested on: UACC-257 melanoma
UACC-62 melanoma = tested on: UACC-62 melanoma

C=C1C(=O)O[C@H]2[C@H]1CC/C(CNC(=O)Cc1c[nH]c3ccccc13)=C\CC[C@@]1(C)O[C@@H]21
GI50 (786-0 renal): 1.22 µM | TGI (786-0 renal): 4.98 µM | GI50 (A498 renal): 13.8 µM | TGI (A498 renal): 26.9 µM | GI50 (A549 NSCLC): 14.9 µM | TGI (A549 NSCLC): 33.3 µM | GI50 (ACHN renal): 1.11 µM | TGI (ACHN renal): 11.4 µM | GI50 (BT-549 breast): 3.04 µM | TGI (BT-549 breast): 15.8 µM | GI50 (CAKI-1 renal): 4.77 µM | TGI (CAKI-1 renal): 17.1 µM | GI50 (CCRF-CEM leukemia): 0.303 µM | TGI (CCRF-CEM leukemia): 1.02 µM | GI50 (COLO 205 colon): 0.313 µM | TGI (COLO 205 colon): 1.14 µM | GI50 (DU-145 prostate): 0.834 µM | TGI (DU-145 prostate): 12.3 µM | GI50 (EKVX NSCLC): 10.6 µM | TGI (EKVX NSCLC): 22.4 µM | GI50 (HCC-2998 colon): 4 µM | TGI (HCC-2998 colon): 15.5 µM | GI50 (HCT-116 colon): 0.533 µM | TGI (HCT-116 colon): 2.55 µM | GI50 (HCT-15 colon): 1.58 µM | TGI (HCT-15 colon): 13.1 µM | GI50 (HL-60(TB) leukemia): 0.314 µM | TGI (HL-60(TB) leukemia): 1.02 µM | GI50 (HOP-62 NSCLC): 5.06 µM | TGI (HOP-62 NSCLC): 19.7 µM | GI50 (HOP-92 NSCLC): 2.17 µM | TGI (HOP-92 NSCLC): 5.25 µM | GI50 (HS 578T breast): 11.9 µM | TGI (HS 578T breast): 45.5 µM | GI50 (HT29 colon): 0.451 µM | TGI (HT29 colon): 11.1 µM | GI50 (IGROV1 ovarian): 0.833 µM | TGI (IGROV1 ovarian): 9.06 µM | GI50 (K-562 leukemia): 0.337 µM | TGI (K-562 leukemia): 11.1 µM | GI50 (KM12 colon): 8.44 µM | TGI (KM12 colon): 21.6 µM | GI50 (LOX IMVI melanoma): 0.355 µM | TGI (LOX IMVI melanoma): 1.54 µM | GI50 (M14 melanoma): 0.641 µM | TGI (M14 melanoma): 9.8 µM | GI50 (MALME-3M melanoma): 3.42 µM | TGI (MALME-3M melanoma): 7.39 µM | GI50 (MCF7 breast): 0.404 µM | TGI (MCF7 breast): 3.3 µM | GI50 (MDA-MB-231 breast): 3.87 µM | TGI (MDA-MB-231 breast): 17.5 µM | GI50 (MDA-MB-435): 0.862 µM | TGI (MDA-MB-435): 13.4 µM | GI50 (MOLT-4 leukemia): 1.83 µM | TGI (MOLT-4 leukemia): 5.75 µM | GI50 (NCI-H226 lung): 2.42 µM | TGI (NCI-H226 lung): 7.81 µM | GI50 (NCI-H23 lung): 3.54 µM | TGI (NCI-H23 lung): 18.6 µM | GI50 (NCI-H460 lung): 12 µM | TGI (NCI-H460 lung): 29.5 µM | GI50 (NCI-H522 lung): 0.365 µM | TGI (NCI-H522 lung): 1.38 µM | GI50 (NCI/ADR-RES ovarian): 19 µM | TGI (NCI/ADR-RES ovarian): 65.6 µM | GI50 (OVCAR-3 ovarian): 0.386 µM | TGI (OVCAR-3 ovarian): 1.44 µM | GI50 (OVCAR-4 ovarian): 1.74 µM | TGI (OVCAR-4 ovarian): 15.7 µM | GI50 (OVCAR-5 ovarian): 10.2 µM | TGI (OVCAR-5 ovarian): 24.2 µM | GI50 (OVCAR-8 ovarian): 1.12 µM | TGI (OVCAR-8 ovarian): 12.4 µM | GI50 (PC-3 prostate): 6.36 µM | TGI (PC-3 prostate): 21.1 µM | GI50 (RPMI-8226 leukemia): 0.486 µM | TGI (RPMI-8226 leukemia): 3.96 µM | GI50 (RXF 393 renal): 1.3 µM | TGI (RXF 393 renal): 5.65 µM | GI50 (SF-268 CNS): 2.62 µM | TGI (SF-268 CNS): 16.3 µM | GI50 (SF-295 CNS): 13 µM | TGI (SF-295 CNS): 26.6 µM | GI50 (SF-539 CNS): 1.92 µM | TGI (SF-539 CNS): 9.1 µM | GI50 (SK-MEL-2 melanoma): 6.46 µM | TGI (SK-MEL-2 melanoma): 22.2 µM | GI50 (SK-MEL-5 melanoma): 7.32 µM | TGI (SK-MEL-5 melanoma): 20.3 µM | GI50 (SK-OV-3 ovarian): 17.6 µM | TGI (SK-OV-3 ovarian): 31.7 µM | GI50 (SN12C renal): 1.91 µM | TGI (SN12C renal): 18.3 µM | GI50 (SNB-19 CNS): 15 µM | TGI (SNB-19 CNS): 35.2 µM | GI50 (SNB-75 CNS): 12.8 µM | TGI (SNB-75 CNS): 35.5 µM | GI50 (SR leukemia): 0.314 µM | TGI (SR leukemia): 2.84 µM | GI50 (SW-620 colon): 0.352 µM | TGI (SW-620 colon): 1.37 µM | GI50 (T-47D breast): 1.07 µM | TGI (T-47D breast): 8.16 µM | GI50 (TK-10 renal): 0.747 µM | TGI (TK-10 renal): 2.01 µM | GI50 (U251 CNS): 2.52 µM | TGI (U251 CNS): 16.5 µM | GI50 (UO-31 renal): 6 µM | TGI (UO-31 renal): 19.3 µM

Cc1c(C#N)c2nnn(-c3ccc(Cl)cc3)c(=O)n2c1-c1ccccc1
TGI (786-0 renal): 7.59 µM | TGI (A498 renal): 3.92 µM | TGI (A549 NSCLC): > 40.3 µM | TGI (ACHN renal): 83.4 µM | TGI (BT-549 breast): 24.9 µM | TGI (CAKI-1 renal): > 52.3 µM | TGI (CCRF-CEM leukemia): > 100 µM | TGI (COLO 205 colon): 0.319 µM | TGI (DU-145 prostate): 8.44 µM | TGI (EKVX NSCLC): 31.3 µM | TGI (HCC-2998 colon): 0.201 µM | TGI (HCT-116 colon): 10.9 µM | TGI (HCT-15 colon): 11.9 µM | TGI (HL-60(TB) leukemia): > 57.3 µM | TGI (HOP-62 NSCLC): 3.73 µM | TGI (HOP-92 NSCLC): 25.7 µM | TGI (HS 578T breast): > 56.3 µM | TGI (HT29 colon): 0.49 µM | TGI (IGROV1 ovarian): 16.9 µM | TGI (K-562 leukemia): 20.1 µM | TGI (KM12 colon): 11.6 µM | TGI (LOX IMVI melanoma): 12.9 µM | TGI (M14 melanoma): 14 µM | TGI (MALME-3M melanoma): 34.4 µM | TGI (MCF7 breast): 19.5 µM | TGI (MDA-MB-231 breast): 0.987 µM | TGI (MDA-MB-435): 0.154 µM | TGI (MOLT-4 leukemia): 42.3 µM | TGI (NCI-H226 lung): 2.02 µM | TGI (NCI-H23 lung): 19.8 µM | TGI (NCI-H460 lung): 3.71 µM | TGI (NCI-H522 lung): 0.207 µM | TGI (NCI/ADR-RES ovarian): 16 µM | TGI (OVCAR-3 ovarian): 0.772 µM | TGI (OVCAR-4 ovarian): > 59.3 µM | TGI (OVCAR-5 ovarian): 32.1 µM | TGI (OVCAR-8 ovarian): 11.2 µM | TGI (PC-3 prostate): 9.12 µM | TGI (RPMI-8226 leukemia): > 30.6 µM | TGI (RXF 393 renal): 3.76 µM | TGI (SF-268 CNS): 14.8 µM | TGI (SF-295 CNS): 1.03 µM | TGI (SF-539 CNS): 0.6 µM | TGI (SK-MEL-2 melanoma): 2.99 µM | TGI (SK-MEL-28 melanoma): > 51.7 µM | TGI (SK-MEL-5 melanoma): 1.3 µM | TGI (SK-OV-3 ovarian): 30 µM | TGI (SN12C renal): 3.85 µM | TGI (SNB-19 CNS): > 40.5 µM | TGI (SNB-75 CNS): 39.7 µM | TGI (SR leukemia): > 56.6 µM | TGI (SW-620 colon): 31.4 µM | TGI (T-47D breast): 45.2 µM | TGI (TK-10 renal): 55 µM | TGI (U251 CNS): 3 µM | TGI (UACC-257 melanoma): 33.6 µM | TGI (UACC-62 melanoma): 18.5 µM | TGI (UO-31 renal): > 51.3 µM
